Tested on: MV-4-11 cells
Test: Gene expression microarray analysis (Affymetrix PrimeView) and GSEA
Format: cell-based, human
Parameters: RFU PODN (11730768_x_at) / Fold change /veh PODN (11730768_x_at) / RFU LINC00158 (11744669_a_at) / Fold change /veh LINC00158 (11744669_a_at) / RFU DUSP10 (11751237_a_at) / Fold change /veh DUSP10 (11751237_a_at) / RFU ID3 (11757404_x_at) / Fold change /veh ID3 (11757404_x_at) / RFU PLEKHG5 (11737974_s_at) / Fold change /veh PLEKHG5 (11737974_s_at) / RFU LRRC4B (11730491_at) / Fold change /veh LRRC4B (11730491_at) / RFU GIMAP4 (11747438_a_at) / Fold change /veh GIMAP4 (11747438_a_at) / RFU KRT8 (11758183_x_at) / Fold change /veh KRT8 (11758183_x_at) / RFU CNN1 (11734310_a_at) / Fold change /veh CNN1 (11734310_a_at) / RFU VPS37D (11726825_at) / Fold change /veh VPS37D (11726825_at) / RFU C10orf10 (11716522_x_at) / Fold change /veh C10orf10 (11716522_x_at) / RFU KIR2DL2 /// KIR2DL4 /// KIR2DL5A /// KIR2DL5B /// KIR2DS1 /// KIR2DS2 /// KIR2DS3 /// KIR2DS4 /// KIR3DL3 /// KIR3DL3 /// KIR3DS1 (11738374_at) / Fold change /veh KIR2DL2 /// KIR2DL4 /// KIR2DL5A /// KIR2DL5B /// KIR2DS1 /// KIR2DS2 /// KIR2DS3 /// KIR2DS4 /// KIR3DL3 /// KIR3DL3 /// KIR3DS1 (11738374_at) / RFU C1QL1 (11718748_at) / Fold change /veh C1QL1 (11718748_at) / RFU TMPRSS4 (11747572_a_at) / Fold change /veh TMPRSS4 (11747572_a_at) / RFU HAMP (11756126_x_at) / Fold change /veh HAMP (11756126_x_at) / RFU RNFT2 (11725882_a_at) / Fold change /veh RNFT2 (11725882_a_at) / RFU NR4A2 (11747474_a_at) / Fold change /veh NR4A2 (11747474_a_at) / RFU ABCC12 (11746883_a_at) / Fold change /veh ABCC12 (11746883_a_at) / RFU TMEM136 (11760407_x_at) / Fold change /veh TMEM136 (11760407_x_at) / RFU CLDN22 /// WWC2 (11732394_at) / Fold change /veh CLDN22 /// WWC2 (11732394_at) / RFU HLA-DPB1 (11760878_x_at) / Fold change /veh HLA-DPB1 (11760878_x_at) / RFU SPINT1 (11716480_a_at) / Fold change /veh SPINT1 (11716480_a_at) / RFU GAP43 (11754022_s_at) / Fold change /veh GAP43 (11754022_s_at) / RFU A4GNT (11735810_at) / Fold change /veh A4GNT (11735810_at) / RFU PRB3 (11715151_x_at) / Fold change /veh PRB3 (11715151_x_at) / RFU TUBB4B (11761932_at) / Fold change /veh TUBB4B (11761932_at) / RFU CAPN14 (11732068_a_at) / Fold change /veh CAPN14 (11732068_a_at) / RFU TMCC2 (11721928_a_at) / Fold change /veh TMCC2 (11721928_a_at) / RFU IRGQ (11745062_a_at) / Fold change /veh IRGQ (11745062_a_at) / RFU FAM174B (11720279_a_at) / Fold change /veh FAM174B (11720279_a_at) / RFU TMPRSS4 (11748680_a_at) / Fold change /veh TMPRSS4 (11748680_a_at) / RFU FAM212B (11763350_a_at) / Fold change /veh FAM212B (11763350_a_at) / RFU PLEKHG5 (11743358_a_at) / Fold change /veh PLEKHG5 (11743358_a_at) / RFU ZSCAN30 (11745921_a_at) / Fold change /veh ZSCAN30 (11745921_a_at) / RFU CMKLR1 (11741424_a_at) / Fold change /veh CMKLR1 (11741424_a_at) / RFU LOC101060620 /// MAPK8IP1 (11723275_at) / Fold change /veh LOC101060620 /// MAPK8IP1 (11723275_at) / RFU SPTSSB (11747773_x_at) / Fold change /veh SPTSSB (11747773_x_at) / RFU PRSS12 (11739890_at) / Fold change /veh PRSS12 (11739890_at) / RFU BIN1 (11741810_x_at) / Fold change /veh BIN1 (11741810_x_at) / RFU WNT11 (11732464_a_at) / Fold change /veh WNT11 (11732464_a_at) / RFU C10orf10 (11716521_a_at) / Fold change /veh C10orf10 (11716521_a_at) / RFU C5orf56 (11738089_at) / Fold change /veh C5orf56 (11738089_at) / RFU CYB561 (11721691_x_at) / Fold change /veh CYB561 (11721691_x_at) / RFU ANKRD19P (11752326_a_at) / Fold change /veh ANKRD19P (11752326_a_at) / RFU OR2T12 /// OR2T33 /// OR2T8 (11738714_s_at) / Fold change /veh OR2T12 /// OR2T33 /// OR2T8 (11738714_s_at) / RFU VCAN (11748164_a_at) / Fold change /veh VCAN (11748164_a_at) / RFU JSRP1 (11732532_at) / Fold change /veh JSRP1 (11732532_at) / RFU KRTAP10-11 (11738290_x_at) / Fold change /veh KRTAP10-11 (11738290_x_at) / RFU MYO3A (11730013_a_at) / Fold change /veh MYO3A (11730013_a_at) / RFU EBF3 (11725865_a_at) / Fold change /veh EBF3 (11725865_a_at) / RFU CAMK2N1 (11719241_x_at) / Fold change /veh CAMK2N1 (11719241_x_at) / RFU C5orf56 (11738088_a_at) / Fold change /veh C5orf56 (11738088_a_at) / RFU OLFML3 (11715873_a_at) / Fold change /veh OLFML3 (11715873_a_at) / RFU LOC100653217 /// NTM (11731650_a_at) / Fold change /veh LOC100653217 /// NTM (11731650_a_at) / RFU MAPK11 (11762145_a_at) / Fold change /veh MAPK11 (11762145_a_at) / RFU FIZ1 (11724087_x_at) / Fold change /veh FIZ1 (11724087_x_at) / RFU OASL (11726364_x_at) / Fold change /veh OASL (11726364_x_at) / RFU SOX15 (11748057_x_at) / Fold change /veh SOX15 (11748057_x_at) / RFU CD79A (11719716_a_at) / Fold change /veh CD79A (11719716_a_at) / RFU HIST1H1D (11736915_at) / Fold change /veh HIST1H1D (11736915_at) / RFU CASKIN2 (11723855_a_at) / Fold change /veh CASKIN2 (11723855_a_at) / RFU LOC730098 (11760151_x_at) / Fold change /veh LOC730098 (11760151_x_at) / RFU OR4N2 (11742367_at) / Fold change /veh OR4N2 (11742367_at) / RFU PRRT2 (11749266_a_at) / Fold change /veh PRRT2 (11749266_a_at) / RFU SNX32 (11753110_a_at) / Fold change /veh SNX32 (11753110_a_at) / RFU CDHR5 (11726645_a_at) / Fold change /veh CDHR5 (11726645_a_at) / RFU RCAN1 (11760418_a_at) / Fold change /veh RCAN1 (11760418_a_at) / RFU FAM167A (11723789_a_at) / Fold change /veh FAM167A (11723789_a_at) / RFU FAM26E (11764081_at) / Fold change /veh FAM26E (11764081_at) / RFU ISYNA1 (11749810_s_at) / Fold change /veh ISYNA1 (11749810_s_at) / RFU ACY1 (11761880_at) / Fold change /veh ACY1 (11761880_at) / RFU 11764098_at / Fold change /veh 11764098_at / RFU SAMD14 (11745864_x_at) / Fold change /veh SAMD14 (11745864_x_at) / RFU NPB (11741838_a_at) / Fold change /veh NPB (11741838_a_at) / RFU TMPRSS6 (11731388_a_at) / Fold change /veh TMPRSS6 (11731388_a_at) / RFU KRTAP10-2 (11738614_at) / Fold change /veh KRTAP10-2 (11738614_at) / RFU ARHGAP8 /// PRR5-ARHGAP8 (11727945_x_at) / Fold change /veh ARHGAP8 /// PRR5-ARHGAP8 (11727945_x_at) / RFU KRTAP5-7 /// NADSYN1 (11734609_at) / Fold change /veh KRTAP5-7 /// NADSYN1 (11734609_at) / RFU RASL12 (11751679_a_at) / Fold change /veh RASL12 (11751679_a_at) / RFU CDKN2B (11736163_a_at) / Fold change /veh CDKN2B (11736163_a_at) / RFU PRF1 (11729649_at) / Fold change /veh PRF1 (11729649_at) / RFU, ZNF638 /// ZNF638-IT1 / Fold change vs veh, ZNF638 /// ZNF638-IT1 / RFU, PANK3 / Fold change vs veh, PANK3 / RFU, SH3YL1 / Fold change vs veh, SH3YL1 / RFU, ZEB2 / Fold change vs veh, ZEB2 / RFU, NRIP1 / Fold change vs veh, NRIP1 / RFU, PTTG1IP / Fold change vs veh, PTTG1IP / RFU, CAPN2 / Fold change vs veh, CAPN2 / RFU, MED14 / Fold change vs veh, MED14 / RFU, SNORA58 / Fold change vs veh, SNORA58 / RFU, C1orf63 / Fold change vs veh, C1orf63 / RFU, LRRFIP1 / Fold change vs veh, LRRFIP1 / RFU, NDUFAF7 / Fold change vs veh, NDUFAF7 / RFU, SLC12A2 / Fold change vs veh, SLC12A2 / RFU, IBTK / Fold change vs veh, IBTK / RFU, ESF1 / Fold change vs veh, ESF1 / Fold change vs veh, TMEM50B / RFU, TAOK1 / Fold change vs veh, TAOK1 / RFU, ACBD3 / Fold change vs veh, ACBD3 / RFU, TMA16 / Fold change vs veh, TMA16 / RFU, RWDD3 / Fold change vs veh, RWDD3 / RFU, BCAT1 / Fold change vs veh, BCAT1 / RFU, EDEM3 / Fold change vs veh, EDEM3 / RFU, TMEM33 / Fold change vs veh, TMEM33 / RFU, WDR75 / Fold change vs veh, WDR75 / RFU, AHCTF1 / Fold change vs veh, AHCTF1 / RFU, TFRC / Fold change vs veh, TFRC / RFU, ZDHHC17 / Fold change vs veh, ZDHHC17 / RFU, NOM1 / Fold change vs veh, NOM1 / RFU, ARL8B / Fold change vs veh, ARL8B / RFU, ZBTB11 / Fold change vs veh, ZBTB11 / RFU, TAMM41 / Fold change vs veh, TAMM41 / RFU, KIAA1704 /// LOC100996395 / Fold change vs veh, KIAA1704 /// LOC100996395 / RFU, ING1 / Fold change vs veh, ING1 / RFU, TRMT61B / Fold change vs veh, TRMT61B / RFU, FUBP3 / Fold change vs veh, FUBP3 / RFU, TP53 / Fold change vs veh, TP53 / RFU, TNKS2 / Fold change vs veh, TNKS2 / RFU, ZFP14 / Fold change vs veh, ZFP14 / RFU, ACTR2 / Fold change vs veh, ACTR2 / RFU, PPP3R1 / Fold change vs veh, PPP3R1 / RFU, PIK3R1 / Fold change vs veh, PIK3R1 / RFU, HNRNPA1 / Fold change vs veh, HNRNPA1 / RFU, RNF170 / Fold change vs veh, RNF170 / RFU, ZNF28 / Fold change vs veh, ZNF28 / RFU, RNGTT / Fold change vs veh, RNGTT / RFU, OGT / Fold change vs veh, OGT / RFU, BRD1 / Fold change vs veh, BRD1 / RFU, MARS / Fold change vs veh, MARS / RFU, ZNF655 / Fold change vs veh, ZNF655 / RFU, FAHD1 / Fold change vs veh, FAHD1 / RFU, BDP1 / Fold change vs veh, BDP1 / RFU, LRRCC1 / Fold change vs veh, LRRCC1 / RFU, ARID1A / Fold change vs veh, ARID1A / RFU, ZNF146 / Fold change vs veh, ZNF146 / RFU, ZNF330 / Fold change vs veh, ZNF330 / RFU, GPN3 / Fold change vs veh, GPN3 / RFU, C9orf123 / Fold change vs veh, C9orf123 / RFU, N4BP2L2 / Fold change vs veh, N4BP2L2 / RFU, ARFIP1 / Fold change vs veh, ARFIP1 / RFU, FAM179B / Fold change vs veh, FAM179B / RFU, BCL10 / Fold change vs veh, BCL10 / RFU, UHRF1BP1L / Fold change vs veh, UHRF1BP1L / RFU, BET1 / Fold change vs veh, BET1 / RFU, CNOT2 / Fold change vs veh, CNOT2 / RFU, ZNF268 / Fold change vs veh, ZNF268 / Fold change vs veh, ZNF507 / RFU, DGCR2 / Fold change vs veh, DGCR2 / RFU, WDSUB1 / Fold change vs veh, WDSUB1 / Fold change vs veh, HSP90B1 /// MIR3652 / RFU, ADSS / Fold change vs veh, ADSS / RFU, GK / Fold change vs veh, GK / RFU, ZNF148 / Fold change vs veh, ZNF148 / RFU, TAF9 / Fold change vs veh, TAF9 / RFU, SLC1A5 / Fold change vs veh, SLC1A5 / RFU, SLMO2 / Fold change vs veh, SLMO2 / RFU, ABCC4 / Fold change vs veh, ABCC4 / RFU, LOC101060439 /// RAP1B / Fold change vs veh, LOC101060439 /// RAP1B / RFU, RFX7 / Fold change vs veh, RFX7 / RFU, GTPBP10 / Fold change vs veh, GTPBP10 / RFU, CNEP1R1 / Fold change vs veh, CNEP1R1 / RFU, BIVM-ERCC5 /// ERCC5 / Fold change vs veh, BIVM-ERCC5 /// ERCC5 / RFU, ILF3 / Fold change vs veh, ILF3 / RFU 11762660_at / Fold change /veh 11762660_at / RFU VCAN (11757783_s_at) / Fold change /veh VCAN (11757783_s_at) / RFU DDX43 (11728927_at) / Fold change /veh DDX43 (11728927_at) / RFU KRT8 (11758188_x_at) / Fold change /veh KRT8 (11758188_x_at) / RFU NKD1 (11759106_at) / Fold change /veh NKD1 (11759106_at) / RFU SRD5A1 (11742802_a_at) / Fold change /veh SRD5A1 (11742802_a_at) / RFU TPSAB1 /// TPSB2 (11721975_s_at) / Fold change /veh TPSAB1 /// TPSB2 (11721975_s_at) / RFU GSTM3 (11746129_a_at) / Fold change /veh GSTM3 (11746129_a_at) / RFU IL23R (11737362_x_at) / Fold change /veh IL23R (11737362_x_at) / RFU TMEM51 (11727254_a_at) / Fold change /veh TMEM51 (11727254_a_at) / RFU PIWIL2 (11732686_x_at) / Fold change /veh PIWIL2 (11732686_x_at) / RFU ORM1 (11744905_x_at) / Fold change /veh ORM1 (11744905_x_at) / RFU CCDC152 (11743942_at) / Fold change /veh CCDC152 (11743942_at) / RFU ECM1 (11717891_a_at) / Fold change /veh ECM1 (11717891_a_at) / RFU IL23R (11748794_a_at) / Fold change /veh IL23R (11748794_a_at) / RFU TNFAIP8L3 (11732012_x_at) / Fold change /veh TNFAIP8L3 (11732012_x_at) / RFU MBOAT4 (11741988_at) / Fold change /veh MBOAT4 (11741988_at) / RFU 11764193_at / Fold change /veh 11764193_at / RFU TMEM53 (11763286_at) / Fold change /veh TMEM53 (11763286_at) / RFU MAGEB2 (11727129_at) / Fold change /veh MAGEB2 (11727129_at) / RFU TMEM200A (11744735_a_at) / Fold change /veh TMEM200A (11744735_a_at) / RFU CCDC152 (11751479_a_at) / Fold change /veh CCDC152 (11751479_a_at) / RFU FAM211A (11726209_a_at) / Fold change /veh FAM211A (11726209_a_at) / RFU RGS16 (11746705_a_at) / Fold change /veh RGS16 (11746705_a_at) / RFU VCAN (11755009_s_at) / Fold change /veh VCAN (11755009_s_at) / RFU RHOB (11743442_s_at) / Fold change /veh RHOB (11743442_s_at) / RFU RGS16 (11720943_a_at) / Fold change /veh RGS16 (11720943_a_at) / RFU RGS16 (11720944_at) / Fold change /veh RGS16 (11720944_at) / RFU, VPS4B / Fold change vs veh, VPS4B / RFU, CREB1 / Fold change vs veh, CREB1 / RFU, DNAJC13 / Fold change vs veh, DNAJC13 / RFU, GNAQ / Fold change vs veh, GNAQ / RFU, CDK5R1 / Fold change vs veh, CDK5R1 / RFU, ZRANB3 / Fold change vs veh, ZRANB3 / RFU, CUL4A / Fold change vs veh, CUL4A / RFU, CCNY / Fold change vs veh, CCNY / RFU, UFL1 / Fold change vs veh, UFL1 / RFU, COG3 / Fold change vs veh, COG3 / RFU, DIAPH2 / Fold change vs veh, DIAPH2 / RFU, SKA2 / Fold change vs veh, SKA2 / RFU, AFF3 / Fold change vs veh, AFF3 / RFU, LMF1 / Fold change vs veh, LMF1 / RFU, IPO11 / Fold change vs veh, IPO11 / RFU, DFFB / Fold change vs veh, DFFB / RFU, FOXP1 / Fold change vs veh, FOXP1 / RFU, CARD8 / Fold change vs veh, CARD8 / RFU, STRN3 / Fold change vs veh, STRN3 / RFU, ADK / Fold change vs veh, ADK / RFU, RASSF2 / Fold change vs veh, RASSF2 / RFU, WIPF1 / Fold change vs veh, WIPF1 / RFU, LARP1B / Fold change vs veh, LARP1B / RFU, RASA1 / Fold change vs veh, RASA1 / RFU, RB1 / Fold change vs veh, RB1 / RFU, PPFIA1 / Fold change vs veh, PPFIA1 / RFU, MAT2A / Fold change vs veh, MAT2A / RFU, CCT5 / Fold change vs veh, CCT5 / RFU, WDR92 / Fold change vs veh, WDR92 / RFU, CUX1 / Fold change vs veh, CUX1 / RFU, TTC7A / Fold change vs veh, TTC7A / RFU, TMEM135 / Fold change vs veh, TMEM135 / RFU, DEPTOR / Fold change vs veh, DEPTOR / RFU, CPM / Fold change vs veh, CPM / RFU, DNAJB6 / Fold change vs veh, DNAJB6 / RFU, CACNA2D3 / Fold change vs veh, CACNA2D3 / RFU, DTX4 / Fold change vs veh, DTX4 / RFU, TFCP2 / Fold change vs veh, TFCP2 / RFU, GMCL1 /// GMCL1P1 / Fold change vs veh, GMCL1 /// GMCL1P1 / RFU, AEBP2 / Fold change vs veh, AEBP2 / RFU, SNHG1 /// SNORD22 /// SNORD25 /// SNORD26 /// SNORD27 /// SNORD28 /// SNORD29 /// SNORD31 / Fold change vs veh, SNHG1 /// SNORD22 /// SNORD25 /// SNORD26 /// SNORD27 /// SNORD28 /// SNORD29 /// SNORD31 / Fold change (Aza/veh), C12orf56 (ProbeSet 11735607_a_at) / Fold change (ACY-1035/veh), C12orf56 (ProbeSet 11735607_a_at) / Fold change (Aza/veh), FGFR1OP (ProbeSet 11751329_s_at) / Fold change (ACY-1035/veh), FGFR1OP (ProbeSet 11751329_s_at) / Fold change (Aza/veh), VPS36 (ProbeSet 11739960_a_at) / Fold change (ACY-1035/veh), VPS36 (ProbeSet 11739960_a_at) / RFU SYPL1 (11715823_x_at) / Fold change /veh SYPL1 (11715823_x_at) / RFU IGFBP7 (11715501_s_at) / Fold change /veh IGFBP7 (11715501_s_at) / RFU REEP3 (11722064_at) / Fold change /veh REEP3 (11722064_at) / RFU IGLL1 (11728026_x_at) / Fold change /veh IGLL1 (11728026_x_at): dose or concentration left out as unconfirmed
Conditions: MV-4-11 cells, 48 hours

`Nc1ccc(-c2cccs2)cc1NC(=O)c1ccc2c(c1)cc(C1CC1)n2CCN1CCOCC1` [ACY-1035] was tested, and the “Fold change /veh ABCC12 (11746883_a_at)” value was 1.17.
